Results: US20110144578A1, “HYDROPHOBIC THERAPUEUTIC AGENT AND SOLID EMULSIFIER COATING FOR DRUG COATED BALLOON” (priority 2009, published 2011)
Converted amounts (≈) assume the structure as drawn.

Legend:
physchem = conditions: water
From the text: Using the Stokes-Einstein equation as a simple model, diffusion coefficients are approximately proportional to the molecular weight of a species raised to the −⅓ power. Thus, individual molecules or micelles, which are low in molecular weight, tend to diffuse much faster than microspheres or nanoparticles, which are much higher in molecular weight.

[1] = Solubility enhancement screening in 5% (w/w) excipient solutions in phosphate buffered saline, HPLC of supernatant; type: physicochemical; conditions: aqueous buffer, thermodynamic from solid, 37° C., n = 3, read-out: Zotarolimus Solubility
Protocol: Emulsifier candidates can be screened by measuring the degree to which they can enhance the solubility of the therapeutic agent. One way to accomplish this is to make 5% (w/w) solutions of the emulsifiers of interest in a phosphate buffered saline solution. An excess amount of drug is added to the solution and incubated with stirring at 37° C. After centrifugation to precipitate all solids, the supernatant is assayed by HPLC for the drug concentration.

`CO[C@H]1C[C@@H]2CC[C@@H](C)[C@@](O)(O2)C(=O)C(=O)N2CCCC[C@H]2C(=O)O[C@H]([C@H](C)C[C@@H]2CC[C@H](n3cnnn3)[C@H](OC)C2)CC(=O)[C@H](C)/C=C(\C)[C@@H](O)[C@@H](OC)C(=O)[C@H](C)C[C@H](C)/C=C/C=C/C=C/1C` [Zotarolimus, zotarolimus] gave a solubility (physchem) of 0.5 µg/mL (≈ 0.517 µM) and a solubility [1] of 0.53 µg/mL.
